According to the supplement of paper PMC10307832:

How the values were obtained:
Experiment in all cases: relative viability (nuclei count vs DMSO), 5 days (fraction); higher = more cells survive
Bromopyruvate + OSI-027 = compound: C(C(=O)C(=O)O)Br [Bromopyruvate] + COc1cccc2cc(-c3nc([C@H]4CC[C@H](C(=O)O)CC4)n4ncnc(N)c34)[nH]c12 [OSI-027] (partner 0.5 µM)
Method in brief: (§1)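 Relative viability equals treated-well nuclei counts divided by vehicle-well nuclei counts. Counts came from 4× images of lung cancer cell lines grown in 1536-well plates for 5 days after pin-tool dosing on the day after seeding. Dosing used one drug alone or a fixed anchor-drug dose plus five library-drug doses (not always all listed) in √10 steps, and values are medians of duplicate plates.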

[1] = compound: C(C(=O)C(=O)O)Br [Bromopyruvate] + CS(=O)(=O)N1CCN(Cc2cc3nc(-c4cccc5[nH]ncc45)nc(N4CCOCC4)c3s2)CC1 [Pictilisib] (partner 1 µM)
Method in brief: as §1

[2] = compound: C(C(=O)C(=O)O)Br [Bromopyruvate] + C[C@]1(O)C[C@@H](c2nc(-c3ccc4ccc(-c5ccccc5)nc4c3)c3c(N)nccn32)C1 [Linsitinib] (partner 1 µM)
Method in brief: as §1

[3] = compound: C(C(=O)C(=O)O)Br [Bromopyruvate] + Cc1cc(Nc2cc(N3CCN(C)CC3)nc(Sc3ccc(NC(=O)C4CC4)cc3)n2)n[nH]1 [Tozasertib] (partner 0.1 µM)
Method in brief: as §1

Cell Line	relative viability (Bromopyruvate + OSI-027; first compound 1 µM)	relative viability (Bromopyruvate + OSI-027; first compound 3.162 µM)	relative viability (Bromopyruvate + OSI-027; first compound 10 µM)	relative viability (Bromopyruvate + OSI-027; first compound 31.62 µM)	relative viability (Bromopyruvate + OSI-027; first compound 100 µM)	relative viability ([1]; first compound 1 µM)	relative viability ([1]; first compound 3.162 µM)	relative viability ([1]; first compound 10 µM)	relative viability ([1]; first compound 31.62 µM)	relative viability ([1]; first compound 100 µM)	relative viability ([2]; first compound 1 µM)	relative viability ([2]; first compound 3.162 µM)	relative viability ([2]; first compound 10 µM)	relative viability ([2]; first compound 31.62 µM)	relative viability ([2]; first compound 100 µM)	relative viability ([3]; first compound 1 µM)	relative viability ([3]; first compound 3.162 µM)	relative viability ([3]; first compound 10 µM)	relative viability ([3]; first compound 31.62 µM)	relative viability ([3]; first compound 100 µM)
201T	0.508	0.752	0.71	0.763	0.638	0.724	0.692	0.626	0.683	0.7	1.05	1.07	1.06	1.02	1.11	0.916	0.954	0.99	1.02	0.982
A549	–	–	–	–	–	0.479	0.629	0.489	0.494	0.6	–	0.607	0.754	0.687	0.696	–	–	–	–	–
A-427	0.562	0.466	0.418	0.42	0.422	0.678	0.809	0.483	0.746	0.718	1.05	1.05	1.03	1.15	1.14	0.22	0.216	0.176	0.162	0.151
ABC-1	0.425	0.471	0.513	0.521	0.548	0.573	0.881	–	0.849	0.686	0.767	1.05	–	0.693	0.753	0.178	0.195	0.155	0.146	0.166
BEN	0.307	0.296	0.293	0.277	0.298	0.64	0.505	0.63	0.552	0.508	0.97	0.869	0.932	0.929	0.936	0.556	0.558	0.426	0.499	0.402
CAL-12T	0.578	0.675	0.85	0.595	0.764	0.431	0.394	0.534	0.309	0.569	0.789	0.732	0.899	0.828	0.845	0.362	0.589	0.242	0.294	0.308
COR-L23	0.817	0.879	0.977	0.705	0.401	0.763	0.772	0.98	0.673	0.524	0.906	0.843	1	0.889	0.451	0.198	0.202	0.183	0.204	0.0755
COR-L 105	0.563	0.701	0.712	0.671	0.639	0.524	0.371	0.361	0.434	0.379	0.943	0.898	0.838	0.736	0.702	0.36	0.34	0.279	0.352	0.435
Calu-6	–	–	–	–	–	0.898	0.958	0.966	0.743	0.829	0.889	1.04	1.09	0.926	0.958	–	–	–	–	–
ChaGo-K-1	0.715	0.521	0.629	0.578	0.493	0.978	0.766	0.581	0.685	0.622	–	–	–	–	–	0.234	0.263	0.247	0.216	0.205
EBC-1	–	–	–	–	–	0.374	0.467	0.412	0.42	0.415	0.78	0.963	0.994	0.905	0.93	–	–	–	–	–
EKVX	0.746	0.691	0.827	0.666	0.761	0.412	0.437	0.444	0.458	0.472	0.905	1.02	1.11	0.965	1.13	0.427	0.391	0.458	0.377	0.421
EMC-BAC-2	0.384	0.382	0.397	0.397	0.405	0.472	0.557	0.572	0.539	0.622	0.716	0.825	0.9	0.838	0.887	0.295	0.289	0.317	0.267	0.314
EPLC-272H	0.245	0.244	0.359	0.251	0.301	0.32	0.363	0.266	0.323	0.296	1.06	1.14	1.13	1.19	1.3	0.257	0.372	0.241	0.325	0.215
H3255	0.523	0.637	0.683	0.679	0.573	0.479	0.503	0.45	0.519	0.588	0.945	1.02	0.997	0.967	1.1	0.613	0.771	0.686	0.702	0.829
HARA	0.518	0.567	0.624	0.436	0.571	0.276	0.47	0.332	0.485	0.449	0.978	1.01	1.01	0.932	1.02	0.13	0.122	0.0899	0.13	0.102
HCC-15	0.711	0.779	0.781	0.715	0.654	0.719	0.719	0.808	0.732	0.7	0.84	0.867	0.924	0.824	0.899	0.393	0.546	0.286	0.371	0.399
HCC-44	0.616	0.634	0.483	0.596	0.483	0.697	0.625	0.693	0.66	0.671	0.612	0.662	0.729	0.753	0.713	0.953	1	0.997	1.02	0.882
HCC-78	0.379	0.326	0.403	0.355	0.345	0.201	0.202	0.224	0.218	0.249	0.457	0.603	0.575	0.629	0.547	0.375	0.404	0.481	0.311	0.536
HCC-366	0.836	1.05	0.812	0.979	1.01	0.157	0.208	0.205	0.143	0.164	0.615	0.848	0.765	0.769	0.54	0.136	0.142	0.0931	0.12	0.0884

Cell Line	relative viability (Bromopyruvate + OSI-027; first compound 1 µM)	relative viability (Bromopyruvate + OSI-027; first compound 3.162 µM)	relative viability (Bromopyruvate + OSI-027; first compound 10 µM)	relative viability (Bromopyruvate + OSI-027; first compound 31.62 µM)	relative viability (Bromopyruvate + OSI-027; first compound 100 µM)	relative viability ([1]; first compound 1 µM)	relative viability ([1]; first compound 3.162 µM)	relative viability ([1]; first compound 10 µM)	relative viability ([1]; first compound 31.62 µM)	relative viability ([1]; first compound 100 µM)	relative viability ([2]; first compound 1 µM)	relative viability ([2]; first compound 3.162 µM)	relative viability ([2]; first compound 10 µM)	relative viability ([2]; first compound 31.62 µM)	relative viability ([2]; first compound 100 µM)	relative viability ([3]; first compound 1 µM)	relative viability ([3]; first compound 3.162 µM)	relative viability ([3]; first compound 10 µM)	relative viability ([3]; first compound 31.62 µM)	relative viability ([3]; first compound 100 µM)
HCC-827	0.779	0.799	0.803	0.778	0.805	1.08	0.909	1.14	1.17	0.849	1.01	0.932	0.926	0.962	0.981	0.375	0.391	0.386	0.421	0.435
HOP-62	0.799	0.743	1.02	0.803	0.891	0.71	0.889	–	0.836	0.988	1.04	1.02	–	0.368	0.24	0.39	0.386	0.381	0.339	0.351
IA-LM	–	–	–	–	–	0.336	0.357	0.328	0.28	0.434	0.534	0.576	0.675	0.674	0.674	–	–	–	–	–
LC-2-ad	0.839	0.867	0.9	0.837	0.633	0.477	0.494	0.513	0.572	0.548	0.825	0.93	0.869	0.842	0.909	0.45	0.475	0.486	0.438	0.428
LCLC-97TM1	0.53	0.482	0.735	0.522	0.51	–	–	0.244	0.191	0.183	–	–	0.22	0.198	0.162	0.195	0.206	0.212	0.182	0.128
LCLC-103H	0.408	0.487	0.528	0.451	0.494	0.508	0.596	0.684	0.524	0.592	1.28	1.07	1	1.08	1.14	0.515	0.446	0.466	0.466	0.544
LK-2	0.235	0.2	0.21	0.223	0.218	0.548	0.526	0.59	0.704	0.642	0.474	0.674	0.541	0.509	0.524	0.171	0.169	0.174	0.179	0.177
LOU-NH91	0.804	0.716	0.747	0.694	0.756	0.588	0.548	0.48	0.516	0.589	0.89	0.964	0.944	1.04	1.1	0.729	0.643	0.654	0.685	0.672
LU99A	0.288	0.27	0.386	0.278	0.317	0.306	0.29	0.319	0.306	0.35	0.567	0.563	0.552	0.614	0.511	0.344	0.253	0.285	0.233	0.325
NCI-H522	0.74	0.715	0.684	0.718	0.706	–	–	–	–	–	–	–	–	–	–	0.616	0.549	0.547	0.485	0.391
NCI-H1299	–	–	–	–	–	0.779	0.811	0.809	0.664	0.799	0.994	1.01	1.04	1.02	0.968	–	–	–	–	–
NCI-H1563	0.747	0.75	0.758	0.77	0.763	0.657	0.657	0.535	0.626	0.697	1.19	1.42	1.16	1.23	1.07	–	–	–	–	–
NCI-H1623	0.495	0.428	0.46	0.383	0.399	–	–	–	–	–	–	–	–	–	–	0.419	0.423	0.527	0.468	0.369
NCI-H1648	0.263	0.263	0.251	0.25	0.259	–	–	–	–	–	–	–	–	–	–	0.514	0.573	0.412	0.522	0.613
NCI-H1650	0.642	0.592	0.669	0.757	0.464	0.545	0.532	0.567	0.651	0.512	–	–	–	–	–	0.441	0.489	0.362	0.504	0.241
NCI-H1703	–	–	–	–	–	0.238	0.226	0.256	0.271	0.269	0.602	1.08	0.709	0.678	0.655	–	–	–	–	–
NCI-H1792	0.798	0.79	0.782	–	0.649	0.306	0.29	0.328	0.317	0.212	0.538	0.533	0.718	0.522	0.456	–	–	–	–	–
NCI-H2170	0.469	0.686	0.769	0.761	0.743	0.435	0.367	0.274	0.319	0.306	–	–	–	–	–	0.689	0.708	0.798	0.761	0.868
NCI-H2342	0.552	0.603	0.542	0.545	0.497	–	–	–	–	–	–	–	–	–	–	0.594	0.616	0.433	0.483	0.412
SW 900	0.589	0.543	0.558	0.562	0.526	–	–	–	–	–	–	–	–	–	–	0.54	0.455	0.44	0.564	0.514
